Data as given in article PMC5201331, “Subchronic Toxicities of HZ1006, a Hydroxamate-Based Histone Deacetylase Inhibitor, in Beagle Dogs and Sprague-Dawley Rats” (International Journal of Environmental Research and Public …, 2016).

Assays:
Beagle dogs [1] = experiment: Subchronic toxicity test in Beagle dogs: organ weights; assay type: in vivo
Description: (§1) HZ1006 was administered orally to dogs (four/sex/group) at doses of 80, 40, 20, 5 and 0 (control) mg/kg/day, and the dosage volume was 2 mL/kg. The dogs received test doses with the exact amounts on a weekly basis based on current body weights. […] The other dogs in the above groups were dissected on the planned days. For the other groups, half of the dogs were anatomized on d28 and the remaining half on d42.
(§2) After euthanasia, the following organs or tissues were isolated from the dogs and rats: skin, abnormal lesions, spleen, mammary glands, jejunum, pancreas, ileum, duodenum, stomach, colon, cecum, lymph nodes, mesenteric salivary glands, liver, submandibular lymph nodes, thymus, sternum, lungs, heart, esophagus, trachea, tongue, thyroid with parathyroid gland, sciatic nerve, aorta, femurs, skeletal muscle, pituitary gland, brain, kidneys, eyes, urinary bladder, adrenal glands, uterus, ovaries, testes, epididymis and prostate. The weights of the animal organs, such as the liver, spleen, heart, thymus, brain, lungs, adrenal glands, kidneys, uterus, ovaries, epididymis and testes, were tested using an electronic balance. The organs or tissues were fixed using 10% neutral buffered formalin and were then gradient dehydrated, embedded, sectioned, and stained with routine hematoxylin-eosin prior to histopathological observations.

Beagle dogs [2] = experiment: Subchronic toxicity test in Beagle dogs: histopathology; assay type: in vivo; settings: after 28 days
Description: as §1, §2

[3] = Subchronic toxicity test in SD rats: overall (NOAEL, urinalysis, bone marrow, histopathology); assay type: in vivo, Sprague-Dawley (SD) rats; settings: both sexes, Sprague-Dawley, rat, in vivo, daily oral administration, read-out: NOAEL (No Observed Adverse Effect Level)
Description: (§3) The rats that were judged suitable for the subchronic toxicity study were randomly divided into four groups (10 rats/sex/group). The rats received the test sample by gavage once daily for 28 days. HZ1006 was administered to the rats at doses of 120, 60, 20 and 0 (control) mg/kg, and the dosage volume was 5 mL/kg. Half of the 80 rats (half male and half female) were selected randomly according to body weight and dissected at d28. The remaining rats were dissected at d42.
(§4) A Micro AUTION MA-4260 Autoanalyzer from Arkray Global Business, Inc. (kyoto, Japan), was used to analyze the animal urine samples. Parameters such as pH, specific gravity, nitrites, leukocytes, glucose, protein, urobilinogen, ketones, occult blood, bilirubin, and hemoglobin were tested.
(§5) Bone marrow samples were obtained according to the methods reported previously. We classified the bone marrow cells by immersion objective. […]

SD rats = experiment: as above; assay type: in vivo, Sprague-Dawley (SD) rats; settings: daily oral administration, 28 days
Description: as §3, §4, §5

[4] = dog ♂5 (80 mg/kg/day oral), d28
[5] = dog ♂23 (40 mg/kg/day oral), d28
[6] = dogs, 5 mg/kg/day oral, d42 (recovery)
[7] = dogs, 20 mg/kg/day oral, d42 (recovery)
[8] = dogs, 40 mg/kg/day oral, d42 (recovery)
[9] = dogs, 80 mg/kg/day oral, d42 (recovery)

With `CCCCCCCNc1cc(/C=C/C(=O)NO)ccc1OCCN(CC)CC` [HZ1006] as the compound, how does the Lung absolute weight (Beagle dogs [1]; [4]) read?
The Lung absolute weight was 135.9 g.

What about the Lung relative weight (Beagle dogs [1]; [4]) of the same compound?
The Lung relative weight was 13.39.

And the Lung absolute weight (Beagle dogs [1]; [5])?
The Lung absolute weight was 109.8 g.

And the Lung relative weight (Beagle dogs [1]; [5])?
Its Lung relative weight is 12.34.

What about the Lung absolute weight (Beagle dogs [1]; dogs, 5 mg/kg/day oral, d28) of the same compound?
The Lung absolute weight was 72.7 ± 8.2 g.

And the Lung relative weight (Beagle dogs [1]; dogs, 5 mg/kg/day oral, d28)?
The Lung relative weight was 6.90 ± 0.90.

What about the Testis absolute weight (Beagle dogs [1]; dogs, 5 mg/kg/day oral, d28) of the same compound?
The Testis absolute weight was 13.550 ± 0.494 g.

What about the Testis relative weight (Beagle dogs [1]; dogs, 5 mg/kg/day oral, d28) of the same compound?
The Testis relative weight was 1.23 ± 0.03.

And the Testis absolute weight (Beagle dogs [1]; [6])?
The Testis absolute weight was 14.050 ± 0.212 g.

What about the Testis relative weight (Beagle dogs [1]; [6]) of the same compound?
The Testis relative weight was 1.45 ± 0.04.

What about the Lung absolute weight (Beagle dogs [1]; dogs, 20 mg/kg/day oral, d28) of the same compound?
The Lung absolute weight was 71.4 ± 12.6 g.

What about the Lung relative weight (Beagle dogs [1]; dogs, 20 mg/kg/day oral, d28) of the same compound?
The Lung relative weight was 6.96 ± 1.02.

And the Testis absolute weight (Beagle dogs [1]; dogs, 20 mg/kg/day oral, d28)?
The Testis absolute weight was 13.953 ± 0.081 g.

And the Testis relative weight (Beagle dogs [1]; dogs, 20 mg/kg/day oral, d28)?
The Testis relative weight was 1.31 ± 0.26.

And the Lung absolute weight (Beagle dogs [1]; [7])?
The Lung absolute weight was 74.0 ± 8.8 g.

What about the Lung relative weight (Beagle dogs [1]; [7]) of the same compound?
The Lung relative weight was 7.37 ± 0.67.

And the Testis absolute weight (Beagle dogs [1]; [7])?
The Testis absolute weight was 12.179 ± 0.518 g.

And the Testis relative weight (Beagle dogs [1]; [7])?
The Testis relative weight was 1.21 ± 0.01.

What about the Lung absolute weight (Beagle dogs [1]; dogs, 40 mg/kg/day oral, d28) of the same compound?
The Lung absolute weight was 92.4 ± 15.4 g.

And the Lung relative weight (Beagle dogs [1]; dogs, 40 mg/kg/day oral, d28)?
Its Lung relative weight is 9.87 ± 2.14.

What about the Testis absolute weight (Beagle dogs [1]; dogs, 40 mg/kg/day oral, d28) of the same compound?
The Testis absolute weight was 6.631 ± 2.855 g.

What about the Testis relative weight (Beagle dogs [1]; dogs, 40 mg/kg/day oral, d28) of the same compound?
Its Testis relative weight is 0.69 ± 0.24.

What about the Lung absolute weight (Beagle dogs [1]; [8]) of the same compound?
Its Lung absolute weight is 70.4 ± 5.0 g.

What about the Lung relative weight (Beagle dogs [1]; [8]) of the same compound?
Its Lung relative weight is 7.10 ± 1.13.

And the Testis absolute weight (Beagle dogs [1]; [8])?
The Testis absolute weight was 9.400 ± 0.063 g.

And the Testis relative weight (Beagle dogs [1]; [8])?
The Testis relative weight was 0.78 ± 0.21.

What about the Lung absolute weight (Beagle dogs [1]; dogs, 80 mg/kg/day oral, d28) of the same compound?
Its Lung absolute weight is 95.8 ± 35.3 g.

What about the Lung relative weight (Beagle dogs [1]; dogs, 80 mg/kg/day oral, d28) of the same compound?
Its Lung relative weight is 9.87 ± 3.27.

And the Testis absolute weight (Beagle dogs [1]; dogs, 80 mg/kg/day oral, d28)?
Its Testis absolute weight is 5.660 ± 1.608 g.

And the Testis relative weight (Beagle dogs [1]; dogs, 80 mg/kg/day oral, d28)?
Its Testis relative weight is 0.61 ± 0.23.

And the Lung absolute weight (Beagle dogs [1]; [9])?
The Lung absolute weight was 82.9 ± 6.8 g.

And the Lung relative weight (Beagle dogs [1]; [9])?
The Lung relative weight was 8.49 ± 0.95.

What about the Testis absolute weight (Beagle dogs [1]; [9]) of the same compound?
The Testis absolute weight was 6.017 ± 2.937 g.

What about the Testis relative weight (Beagle dogs [1]; [9]) of the same compound?
Its Testis relative weight is 0.63 ± 0.31.

And the “Bone marrow of sternum: decrease in hematopoietic cell numbers (incidence/number examined)” value (Beagle dogs [2]; 5 mg/kg/day oral)?
The value was 0/4.

What about the “Epididymis: lack of mature sperm and secretions in the epididymal lumen as well as decrease of epididymal lumen size (incidence/number examined)” value (Beagle dogs [2]; 5 mg/kg/day oral) of the same compound?
The value was 0/2.

And the “Lung: large confluent bronchopneumonia (incidence/number examined)” value (“Lung … (incidence/number examined)” below) (Beagle dogs [2]; 5 mg/kg/day oral)?
Its value is 0/4.

And the “Prostate: reduction in numbers and size, thinner epithelium, narrowing of the glandular cavity of prostatic acini (incidence/number examined)” value (Beagle dogs [2]; 5 mg/kg/day oral)?
Its value is 0/2.

What about the “Testis: Reduction in numbers and types of spermatogenic cells (incidence/number examined)” value (“Testis: Reduction … (incidence/number examined)” for short) (Beagle dogs [2]; 5 mg/kg/day oral) of the same compound?
The value was 0/2.

And the “Epididymis: lack of mature sperm and secretions in the epididymal lumen as well as decrease of epididymal lumen size (incidence/number examined)” value (Beagle dogs [2]; 20 mg/kg/day oral)?
Its value is 0/2.

And the “Lung … (incidence/number examined)” value (Beagle dogs [2]; 20 mg/kg/day oral)?
Its value is 0/4.

What about the “Prostate: reduction in numbers and size, thinner epithelium, narrowing of the glandular cavity of prostatic acini (incidence/number examined)” value (Beagle dogs [2]; 20 mg/kg/day oral) of the same compound?
Its value is 0/2.

What about the “Testis: Reduction … (incidence/number examined)” value (Beagle dogs [2]; 20 mg/kg/day oral) of the same compound?
The value was 0/2.

What about the “Bone marrow of sternum: decrease in hematopoietic cell numbers (incidence/number examined)” value (Beagle dogs [2]; 40 mg/kg/day oral) of the same compound?
Its value is 2/4.

What about the “Epididymis: lack of mature sperm and secretions in the epididymal lumen as well as decrease of epididymal lumen size (incidence/number examined)” value (Beagle dogs [2]; 40 mg/kg/day oral) of the same compound?
The value was 2/2.

What about the “Lung … (incidence/number examined)” value (Beagle dogs [2]; 40 mg/kg/day oral) of the same compound?
The value was 2/4.

What about the “Prostate: reduction in numbers and size, thinner epithelium, narrowing of the glandular cavity of prostatic acini (incidence/number examined)” value (Beagle dogs [2]; 40 mg/kg/day oral) of the same compound?
Its value is 2/2.

What about the “Testis: Reduction … (incidence/number examined)” value (Beagle dogs [2]; 40 mg/kg/day oral) of the same compound?
The value was 2/2.

What about the “Bone marrow of sternum: decrease in hematopoietic cell numbers (incidence/number examined)” value (Beagle dogs [2]; 80 mg/kg/day oral) of the same compound?
The value was 3/4.

What about the “Epididymis: lack of mature sperm and secretions in the epididymal lumen as well as decrease of epididymal lumen size (incidence/number examined)” value (Beagle dogs [2]; 80 mg/kg/day oral) of the same compound?
Its value is 2/2.

What about the “Lung … (incidence/number examined)” value (Beagle dogs [2]; 80 mg/kg/day oral) of the same compound?
Its value is 2/4.

What about the “Prostate: reduction in numbers and size, thinner epithelium, narrowing of the glandular cavity of prostatic acini (incidence/number examined)” value (Beagle dogs [2]; 80 mg/kg/day oral) of the same compound?
Its value is 2/2.

And the “Testis: Reduction … (incidence/number examined)” value (Beagle dogs [2]; 80 mg/kg/day oral)?
Its value is 2/2.

And the NOAEL at 28 days [3]?
Its NOAEL at 28 days is 60 mg/kg.

What about the minimum toxic dose (SD rats) of the same compound?
Its minimum toxic dose is 120 mg/kg.
